Measurements as given in patent US6376426B1, “Herbicidal 3-(heterocycl-1-yl)-uracils” (BASF Aktiengesellschaft, priority 1999, dated 2002).

Columns and labels:
Format in all cases: in vivo
Matricaria inodora [1] = assay: Post-emergence herbicidal test, MATIN; parameters: key to herbicidal effect (0-9 scale) MATIN / herbicidal rating MATIN: A rating 0 indicates growth as untreated control; a rating 9 indicates death; details: POST, 0-9 scale, 21 days after spraying
Experimental: (§1) To evaluate their herbicidal activity, compounds according to the invention are tested using a representative range of plants:
(§2) […] After spraying, the plants are placed on greenhouse benches and are cared for in the usual manner, commensurate with conventional greenhouse practices.
(§3) The herbicidal effects of the test compounds are assessed visually twenty-one days after spraying the foliage and the soil and are recorded on a 0-9 scale. A rating 0 indicates growth as untreated control, a rating 9 indicates death. An increase of 1 unit on the linear scale approximates to a 10% increase in the level of effect.

Setaria viridis [2] = assay: Post-emergence herbicidal test, SETVI; parameters: key to herbicidal effect (0-9 scale) SETVI / herbicidal rating SETVI: A rating 0 indicates growth as untreated control; a rating 9 indicates death; details: POST, 0-9 scale, 21 days after spraying
Experimental: as §1, §2, §3

Alopecurus myosuroides [3] = assay: Pre-emergence herbicidal test, ALOMY; parameters: key to herbicidal effect (0-9 scale) ALOMY / herbicidal rating ALOMY: A rating 0 indicates growth as untreated control; a rating 9 indicates death; details: for herbicidal rating ALOMY: PRE, 0-9 scale, 21 days after spraying
Experimental: as §1
(§4) The pre-emergence tests involve spraying a liquid formulation of the compound onto the soil in which the seeds of the plant species mentioned above has recently been sown.
(§5) The soil used in the tests is a prepared horticultural loam. The formulations used in the tests are prepared from solutions of the test compounds in acetone containing 0.4% by weight of an alkylphenol/ethylene oxide condensate available under the trade mark TRITON X-155. […] In these tests untreated sown soil are used as controls.
as §3

Zea mays [4] = assay: Pre-emergence herbicidal test, ZEAMX; parameters: key to herbicidal effect (0-9 scale) ZEAMX / herbicidal rating ZEAMX: A rating 0 indicates growth as untreated control; a rating 9 indicates death; details: for herbicidal rating ZEAMX: PRE, 0-9 scale, 21 days after spraying
Experimental: as §1, §4, §5, §3

Alopecurus myosuroides [5] = assay: Post-emergence herbicidal test, ALOMY; parameters: key: A rating 0 indicates growth as untreated control; a rating 9 indicates death; details: 0-9 scale, 21 days after spraying
Experimental: as §1, §2, §3

[6] = tested on: representative range of plants; assay: Pre-emergence herbicidal test, summary over the plants tested; details: 100 g/ha
Experimental: as §1, §4, §5, §3

Galium aparine [7] = assay: Pre-emergence herbicidal test, GALAP; parameters: key to herbicidal effect (0-9 scale) GALAP / herbicidal rating GALAP: A rating 0 indicates growth as untreated control; a rating 9 indicates death; details: PRE, 0-9 scale, 21 days after spraying
Experimental: as §1, §4, §5, §3

Ipomoea hederacea [8] = assay: Post-emergence herbicidal test, IPOHE; parameters: key to herbicidal effect (0-9 scale) IPOHE / herbicidal rating IPOHE: A rating 0 indicates growth as untreated control; a rating 9 indicates death; details: POST, 0-9 scale, 21 days after spraying
Experimental: as §1, §2, §3

Zea mays [9] = assay: Post-emergence herbicidal test, ZEAMX; parameters: key: A rating 0 indicates growth as untreated control; a rating 9 indicates death; details: 0-9 scale, 21 days after spraying
Experimental: as §1, §2, §3

[10] = tested on: representative range of plants; assay: Herbicidal activity, pre- and post-emergence, overall; details: both in pre- and post-emergence
Experimental: as §1, §4
The soil used in the tests is a prepared horticultural loam. The formulations used in the tests are prepared from solutions of the test compounds in acetone containing 0.4% by weight of an alkylphenol/ethylene oxide condensate available under the trade mark TRITON X-155. These acetone solutions are diluted with water and the resulting formulations applied at dosage levels corresponding to 1000 g and 250 g/ha of active material per hectare in a volume equivalent to 900 litres per hectare. In these tests untreated sown soil are used as controls.
These acetone solutions are diluted with water and the resulting formulations applied at dosage levels equivalent to about 1000, 800, 400, 250 or 100 g/ha per hectare of test compound per pot. After spraying, the plants are placed on greenhouse benches and are cared for in the usual manner, commensurate with conventional greenhouse practices.
as §3

Ipomoea hederacea [11] = assay: Pre-emergence herbicidal test, IPOHE; parameters: key: A rating 0 indicates growth as untreated control; a rating 9 indicates death; details: 0-9 scale, 21 days after spraying
Experimental: as §1, §4, §5, §3

Abutilon theophrasti [12] = assay: Post-emergence herbicidal test, ABUTH; parameters: key to herbicidal effect (0-9 scale) ABUTH / herbicidal rating ABUTH: A rating 0 indicates growth as untreated control; a rating 9 indicates death; details: POST, 0-9 scale, 21 days after spraying
Experimental: as §1, §2, §3

Glycine max [13] = assay: Pre-emergence herbicidal test, GLXMA; parameters: key to herbicidal effect (0-9 scale) GLXMA / herbicidal rating GLXMA: A rating 0 indicates growth as untreated control; a rating 9 indicates death; details: for herbicidal rating GLXMA: PRE, 0-9 scale, 21 days after spraying
Experimental: as §1, §4, §5, §3

Echinochloa crus-galli [14] = assay: Post-emergence herbicidal test, ECHCG; parameters: key: A rating 0 indicates growth as untreated control; a rating 9 indicates death; details: 0-9 scale, 21 days after spraying
Experimental: as §1, §2, §3

Echinochloa crus-galli [15] = assay: Pre-emergence herbicidal test, ECHCG; parameters: key: A rating 0 indicates growth as untreated control; a rating 9 indicates death; details: 0-9 scale, 21 days after spraying
Experimental: as §1, §4, §5, §3

Setaria viridis [16] = assay: Pre-emergence herbicidal test, SETVI; parameters: key to herbicidal effect (0-9 scale) SETVI / herbicidal rating SETVI: A rating 0 indicates growth as untreated control; a rating 9 indicates death; details: PRE, 0-9 scale, 21 days after spraying
Experimental: as §1, §4, §5, §3

Stellaria media [17] = assay: Post-emergence herbicidal test, STEME; parameters: key to herbicidal effect (0-9 scale) STEME / herbicidal rating STEME: A rating 0 indicates growth as untreated control; a rating 9 indicates death; details: POST, 0-9 scale, 21 days after spraying
Experimental: as §1, §2, §3

[18] = tested on: representative range of plants; assay: Post-emergence herbicidal test, summary over the plants tested
Experimental: as §1, §2, §3

Abutilon theophrasti [19] = assay: Pre-emergence herbicidal test, ABUTH; parameters: key to herbicidal effect (0-9 scale) ABUTH / herbicidal rating ABUTH: A rating 0 indicates growth as untreated control; a rating 9 indicates death; details: PRE, 0-9 scale, 21 days after spraying
Experimental: as §1, §4, §5, §3

Matricaria inodora [20] = assay: Pre-emergence herbicidal test, MATIN; parameters: key to herbicidal effect (0-9 scale) MATIN / herbicidal rating MATIN: A rating 0 indicates growth as untreated control; a rating 9 indicates death; details: PRE, 0-9 scale, 21 days after spraying
Experimental: as §1, §4, §5, §3

Glycine max [21] = assay: Post-emergence herbicidal test, GLXMA; parameters: key: A rating 0 indicates growth as untreated control; a rating 9 indicates death; details: 0-9 scale, 21 days after spraying
Experimental: as §1, §2, §3

Galium aparine [22] = assay: Post-emergence herbicidal test, GALAP; parameters: key to herbicidal effect (0-9 scale) GALAP / herbicidal rating GALAP: A rating 0 indicates growth as untreated control; a rating 9 indicates death; details: POST, 0-9 scale, 21 days after spraying
Experimental: as §1, §2, §3

Stellaria media [23] = assay: Pre-emergence herbicidal test, STEME; parameters: key to herbicidal effect (0-9 scale) STEME / herbicidal rating STEME: A rating 0 indicates growth as untreated control; a rating 9 indicates death; details: PRE, 0-9 scale, 21 days after spraying
Experimental: as §1, §4, §5, §3

Structure (SMILES): Cn1c(C(F)(F)F)cc(=O)n(-n2ncc3c(Cl)cccc32)c1=O [Example 168, 3-(4-Chloro-1-indazol-1-yl)-1-methyl-6trifluoromethylpyrimidine-2,4-dione]
- herbicidal rating MATIN (Matricaria inodora [1]; 12.5 g/ha): 8
- herbicidal rating MATIN (Matricaria inodora [1]; 25 g/ha): 9
- herbicidal rating MATIN (Matricaria inodora [1]; 100 g/ha): 9
- herbicidal rating SETVI (Setaria viridis [2]; 12.5 g/ha): 6
- herbicidal rating SETVI (Setaria viridis [2]; 25 g/ha): 7
- herbicidal rating SETVI (Setaria viridis [2]; 100 g/ha): 9
- herbicidal rating ALOMY (Alopecurus myosuroides [3]; 12.5 g/ha): 0
- herbicidal rating ALOMY (Alopecurus myosuroides [3]; 25 g/ha): 0
- herbicidal rating ALOMY (Alopecurus myosuroides [3]; 100 g/ha): 2
- control of Alopecurus (Alopecurus myosuroides [3]; pre-emergence, 100 g/ha): well controlled
- herbicidal rating ZEAMX (Zea mays [4]; 12.5 g/ha): 0
- herbicidal rating ZEAMX (Zea mays [4]; 25 g/ha): 0
- herbicidal rating ZEAMX (Zea mays [4]; 100 g/ha): 1
- selectivity in maize (Zea mays [4]; pre-emergence, 100 g/ha): Surprisingly good selectivity
- herbicidal rating ALOMY (Alopecurus myosuroides [5]; 12.5 g/ha): 0
- herbicidal rating ALOMY (Alopecurus myosuroides [5]; 25 g/ha): 1
- herbicidal rating ALOMY (Alopecurus myosuroides [5]; 100 g/ha): 3
- control of the weeds [6]: four out of five broadleaf weeds were well controlled
- herbicidal rating GALAP (Galium aparine [7]; 12.5 g/ha): 3
- herbicidal rating GALAP (Galium aparine [7]; 25 g/ha): 6
- herbicidal rating GALAP (Galium aparine [7]; 100 g/ha): 9
- herbicidal rating IPOHE (Ipomoea hederacea [8]; 12.5 g/ha): 9
- herbicidal rating IPOHE (Ipomoea hederacea [8]; 25 g/ha): 9
- herbicidal rating IPOHE (Ipomoea hederacea [8]; 100 g/ha): 9
- herbicidal rating ZEAMX (Zea mays [9]; 12.5 g/ha): 0
- herbicidal rating ZEAMX (Zea mays [9]; 25 g/ha): 1
- herbicidal rating ZEAMX (Zea mays [9]; 100 g/ha): 3
- herbicidal performance [10]: good performance
- herbicidal rating IPOHE (Ipomoea hederacea [11]; 12.5 g/ha): 0
- herbicidal rating IPOHE (Ipomoea hederacea [11]; 25 g/ha): 3
- herbicidal rating IPOHE (Ipomoea hederacea [11]; 100 g/ha): 7
- herbicidal rating ABUTH (Abutilon theophrasti [12]; 12.5 g/ha): 9
- herbicidal rating ABUTH (Abutilon theophrasti [12]; 25 g/ha): 9
- herbicidal rating ABUTH (Abutilon theophrasti [12]; 100 g/ha): 9
- herbicidal rating GLXMA (Glycine max [13]; 12.5 g/ha): 0
- herbicidal rating GLXMA (Glycine max [13]; 25 g/ha): 0
- herbicidal rating GLXMA (Glycine max [13]; 100 g/ha): 0
- selectivity in soy beans (Glycine max [13]; pre-emergence, 100 g/ha): Surprisingly good selectivity
- herbicidal rating ECHCG (Echinochloa crus-galli [14]; 12.5 g/ha): 0
- herbicidal rating ECHCG (Echinochloa crus-galli [14]; 25 g/ha): 2
- herbicidal rating ECHCG (Echinochloa crus-galli [14]; 100 g/ha): 8
- herbicidal rating ECHCG (Echinochloa crus-galli [15]; 12.5 g/ha): 0
- herbicidal rating ECHCG (Echinochloa crus-galli [15]; 25 g/ha): 1
- herbicidal rating ECHCG (Echinochloa crus-galli [15]; 100 g/ha): 6
- herbicidal rating SETVI (Setaria viridis [16]; 12.5 g/ha): 2
- herbicidal rating SETVI (Setaria viridis [16]; 25 g/ha): 5
- herbicidal rating SETVI (Setaria viridis [16]; 100 g/ha): 9
- herbicidal rating STEME (Stellaria media [17]; 12.5 g/ha): 7
- herbicidal rating STEME (Stellaria media [17]; 25 g/ha): 7
- herbicidal rating STEME (Stellaria media [17]; 100 g/ha): 9
- control of broadleaf weeds ([18]; 12.5 g/ha): all broadleaf weeds were still well controlled
- control of the weeds ([18]; 100 g/ha): good cross spectrum control on both broadleaf weeds and grasses except Alopecurus and Echinochloa
- herbicidal rating ABUTH (Abutilon theophrasti [19]; 12.5 g/ha): 9
- herbicidal rating ABUTH (Abutilon theophrasti [19]; 25 g/ha): 9
- herbicidal rating ABUTH (Abutilon theophrasti [19]; 100 g/ha): 9
- herbicidal rating MATIN (Matricaria inodora [20]; 12.5 g/ha): 8
- herbicidal rating MATIN (Matricaria inodora [20]; 25 g/ha): 8
- herbicidal rating MATIN (Matricaria inodora [20]; 100 g/ha): 9
- herbicidal rating GLXMA (Glycine max [21]; 12.5 g/ha): 5
- herbicidal rating GLXMA (Glycine max [21]; 25 g/ha): 6
- herbicidal rating GLXMA (Glycine max [21]; 100 g/ha): 9
- herbicidal rating GALAP (Galium aparine [22]; 12.5 g/ha): 9
- herbicidal rating GALAP (Galium aparine [22]; 25 g/ha): 9
- herbicidal rating GALAP (Galium aparine [22]; 100 g/ha): 9
- herbicidal rating STEME (Stellaria media [23]; 12.5 g/ha): 1
- herbicidal rating STEME (Stellaria media [23]; 25 g/ha): 3
- herbicidal rating STEME (Stellaria media [23]; 100 g/ha): 9
